Assays:
[1] = tested on: NCI-H358 cells (K-Ras G12C); experiment: Potency assay: pERK in NCI-H358 cells; assay type: cell-based, human; settings: Homo sapiens, NCI-H358; H358 KRAS G12C; read-out: pERK EC50
Summary of the method: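 Inhibition of cellular pERK after a 4 h treatment, detected by AlphaLISA or In-Cell Western. IC50 from a four-parameter concentration-response fit.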

[2] = tested on: NCI-H358 (K-Ras G12C); experiment: CellTiter-Glo cell viability assay, NCI-H358; assay type: cell-based, human; settings: Homo sapiens, NCI-H358, 120 h, NCI-H358, 5-day treatment; class symbols; read-out: Additional H358 Cell Viability assay data (K-Ras G12C, IC50)
Summary of the method: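 Compounds were dispensed directly onto K-Ras mutant cells and incubated until day 5, then plates were equilibrated to room temperature for about 30 minutes before CellTiter-Glo luminescence. Signals were normalized as (sample/average DMSO)*100 and fitted by four-parameter logistic fit.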

[3] = molecular target: K-Ras G12C (Homo sapiens (Human), UniProt P01116+P62937, G12C); experiment: Ras-Raf (BRAF RBD) disruption / FRET / MOA assay, KRAS G12C; assay type: biochemical; settings: KRAS G12C; Ras-Raf disruption/FRET/MOA assay; read-out: IC50* KRAS G12C FRET data
Chain of K-Ras G12C (P01116-2 other isoform, or with tags, fused parts or gaps G12C): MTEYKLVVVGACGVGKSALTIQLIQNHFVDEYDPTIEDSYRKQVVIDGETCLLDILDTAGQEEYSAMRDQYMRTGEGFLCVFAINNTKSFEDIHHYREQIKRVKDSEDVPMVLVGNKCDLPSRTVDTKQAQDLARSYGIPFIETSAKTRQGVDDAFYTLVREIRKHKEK
Chain of K-Ras G12C (P62937 whole entry): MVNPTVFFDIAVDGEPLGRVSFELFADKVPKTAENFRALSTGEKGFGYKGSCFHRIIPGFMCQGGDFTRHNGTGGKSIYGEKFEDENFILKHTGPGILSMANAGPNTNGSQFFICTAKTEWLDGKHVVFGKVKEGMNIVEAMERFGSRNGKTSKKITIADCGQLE
Summary of the method: (§1)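 TR-FRET read-out: a drop in ratio relative to DMSO wells marks disruption of the Ras:RAF complex, reported as IC50. Compounds (3-fold series, 10 points, top 30 μM final) incubated 3 h at 25° C before Eu-anti-His 10 nM and APC-anti-GST 50 nM, 1.5 h more.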

[4] = molecular target: K-Ras G13C (Homo sapiens (Human), UniProt P01116+P62937, G13C); experiment: Ras-Raf (BRAF RBD) disruption / FRET / MOA assay, KRAS G13C; assay type: biochemical; settings: KRAS G13C; Ras-Raf disruption/FRET/MOA assay; read-out: IC50* KRAS G13C FRET data
Chain of K-Ras G13C (P01116-2 other isoform, or with tags, fused parts or gaps G13C): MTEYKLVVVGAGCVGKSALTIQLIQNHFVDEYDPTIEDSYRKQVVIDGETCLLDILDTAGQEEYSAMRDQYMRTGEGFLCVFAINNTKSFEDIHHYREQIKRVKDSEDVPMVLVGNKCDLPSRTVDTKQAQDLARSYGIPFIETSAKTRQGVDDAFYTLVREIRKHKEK
Chain of K-Ras G13C (P62937 whole entry): as the sequence (P62937 whole entry) above
Summary of the method: as §1

[5] = molecular target: KRAS G12S (Homo sapiens (Human), UniProt P01116+P62937, G12S); experiment: Ras-Raf (BRAF RBD) disruption / FRET / MOA assay, KRAS G12S; assay type: biochemical; settings: Ras-Raf disruption/FRET/MOA assay; class symbols; read-out: KRAS G12S FRET data IC50
Chain of KRAS G12S (P01116-2 other isoform, or with tags, fused parts or gaps G12S): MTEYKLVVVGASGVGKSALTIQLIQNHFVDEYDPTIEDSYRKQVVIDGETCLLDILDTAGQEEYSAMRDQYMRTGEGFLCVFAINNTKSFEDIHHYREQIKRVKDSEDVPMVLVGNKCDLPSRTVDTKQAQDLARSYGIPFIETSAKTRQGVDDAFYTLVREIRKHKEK
Chain of KRAS G12S (P62937 whole entry): as the sequence (P62937 whole entry) above
Summary of the method: as §1

[6] = molecular target: KRAS G12D (Homo sapiens (Human), UniProt P01116+P62937, G12D); experiment: Ras-Raf (BRAF RBD) disruption / FRET / MOA assay, KRAS G12D; assay type: biochemical; settings: Ras-Raf disruption/FRET/MOA assay; class symbols; read-out: KRAS G12D FRET data IC50
Chain of KRAS G12D (P01116-2 other isoform, or with tags, fused parts or gaps G12D): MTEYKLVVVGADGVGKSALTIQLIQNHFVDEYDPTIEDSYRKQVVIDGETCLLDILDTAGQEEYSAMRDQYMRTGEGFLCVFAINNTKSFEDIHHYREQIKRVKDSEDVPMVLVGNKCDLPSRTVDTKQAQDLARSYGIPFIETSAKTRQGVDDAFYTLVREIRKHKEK
Chain of KRAS G12D (P62937 whole entry): as the sequence (P62937 whole entry) above
Summary of the method: as §1

[7] = molecular target: KRAS G12V (Homo sapiens (Human), UniProt P01116+P62937, G12V); experiment: Ras-Raf (BRAF RBD) disruption / FRET / MOA assay, KRAS G12V; assay type: biochemical; settings: read-out: IC50* KRAS G12V FRET data
Chain of KRAS G12V (P01116-2 other isoform, or with tags, fused parts or gaps G12V): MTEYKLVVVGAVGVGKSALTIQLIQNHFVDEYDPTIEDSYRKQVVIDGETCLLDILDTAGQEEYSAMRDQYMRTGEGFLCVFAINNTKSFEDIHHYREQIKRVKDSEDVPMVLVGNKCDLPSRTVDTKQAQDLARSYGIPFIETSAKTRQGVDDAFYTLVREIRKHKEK
Chain of KRAS G12V (P62937 whole entry): as the sequence (P62937 whole entry) above
Summary of the method: as §1

[8] = molecular target: KRAS WT (Homo sapiens (Human), UniProt P01116+P62937); experiment: Ras-Raf (BRAF RBD) disruption / FRET / MOA assay, KRAS WT; assay type: biochemical; settings: read-out: IC50* KRAS WT FRET data
Chain of KRAS WT (P01116-2 other isoform, or with tags, fused parts or gaps): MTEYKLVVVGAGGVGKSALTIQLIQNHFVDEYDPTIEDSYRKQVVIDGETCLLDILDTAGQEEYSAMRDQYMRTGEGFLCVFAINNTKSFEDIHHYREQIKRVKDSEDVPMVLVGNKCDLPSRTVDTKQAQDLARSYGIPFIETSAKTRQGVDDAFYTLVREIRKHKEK
Chain of KRAS WT (P62937 whole entry): as the sequence (P62937 whole entry) above
Summary of the method: as §1

[9] = molecular target: KRAS G13D (Homo sapiens (Human), UniProt P01116+P62937, G13D); experiment: Ras-Raf (BRAF RBD) disruption / FRET / MOA assay, KRAS G13D; assay type: biochemical; settings: read-out: IC50* KRAS G13D FRET data
Chain of KRAS G13D (P01116-2 other isoform, or with tags, fused parts or gaps G13D): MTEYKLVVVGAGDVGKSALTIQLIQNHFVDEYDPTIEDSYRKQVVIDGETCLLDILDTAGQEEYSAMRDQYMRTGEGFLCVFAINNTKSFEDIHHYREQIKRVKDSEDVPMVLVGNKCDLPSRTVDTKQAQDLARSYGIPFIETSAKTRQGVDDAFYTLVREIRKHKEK
Chain of KRAS G13D (P62937 whole entry): as the sequence (P62937 whole entry) above
Summary of the method: as §1

[10] = molecular target: NRAS G12C (Homo sapiens (Human), UniProt P01111+P62937, G12C); experiment: Ras-Raf (BRAF RBD) disruption / FRET / MOA assay, NRAS G12C; assay type: biochemical; settings: read-out: IC50* NRAS G12C FRET data
Chain of NRAS G12C (P01111 whole entry G12C): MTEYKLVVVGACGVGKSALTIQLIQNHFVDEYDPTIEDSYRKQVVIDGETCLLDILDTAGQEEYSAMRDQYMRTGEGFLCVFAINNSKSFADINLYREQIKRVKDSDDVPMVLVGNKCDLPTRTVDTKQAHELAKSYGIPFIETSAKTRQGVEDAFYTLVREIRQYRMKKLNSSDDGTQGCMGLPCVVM
Chain of NRAS G12C (P62937 whole entry): as the sequence (P62937 whole entry) above
Summary of the method: as §1

| SMILES | EC50 [1] | IC50 [2] | IC50 [3] | IC50 [4] | IC50 [5] | IC50 [6] | IC50 [7] | IC50 [8] | IC50 [9] | IC50 [10] |
| --- | --- | --- | --- | --- | --- | --- | --- | --- | --- | --- |
| C=CC(=O)N1CC2(C1)CN(C(=O)N(C)[C@H](C(=O)N[C@H]1Cc3nc(cs3)-c3ccc4c(c3)c(c(-c3cccnc3[C@H](C)OC)n4CC)CC(C)(C)COC(=O)[C@@H]3CCCN(N3)C1=O)C(C)C)CCO2 (atropisomer, axis not shown) [Example A431] | < 5000 nM | 10 to 100 nM | 100 to 1000 nM | 100 to 1000 nM | 100 to 1000 nM | 1000 to 10000 nM | 100 to 1000 nM | 100 to 1000 nM | 1000 to 10000 nM | 100 to 1000 nM |
| C=CC(=O)N1CCN(C(=O)N(C)[C@H](C(=O)N[C@H]2Cc3nc(cs3)-c3ccc4c(c3)c(c(-c3cccnc3[C@H](C)OC)n4CC)CC(C)(C)COC(=O)[C@@H]3CCCN(N3)C2=O)C(C)C)C[C@H]1C (atropisomer, axis not shown) [Example A432] | < 5000 nM | 10 to 100 nM | 10 to 100 nM | 10 to 100 nM | 100 to 1000 nM | 100 to 1000 nM | 100 to 1000 nM | 10 to 100 nM | 100 to 1000 nM | 10 to 100 nM |
| C=CC(=O)N1CCN(C(=O)N(C)[C@H](C(=O)N[C@H]2Cc3nc(cs3)-c3ccc4c(c3)c(c(-c3cccnc3[C@H](C)OC)n4CC)CC(C)(C)COC(=O)[C@@H]3CCCN(N3)C2=O)C(C)C)C[C@@H]1C (atropisomer, axis not shown) [Example A433] | < 5000 nM | 10 to 100 nM | 10 to 100 nM | 10 to 100 nM | 10 to 100 nM | 100 to 1000 nM | 100 to 1000 nM | 10 to 100 nM | 100 to 1000 nM | 10 to 100 nM |
| C=CC(=O)N1CC(N(C)C(=O)N(C)[C@H](C(=O)N[C@H]2Cc3nc(cs3)-c3ccc4c(c3)c(c(-c3cccnc3[C@H](C)OC)n4CC)CC(C)(C)COC(=O)[C@@H]3CCCN(N3)C2=O)C(C)C)C1 (atropisomer, axis not shown) [Example A435] | < 5000 nM | < 10 nM | 10 to 100 nM | 100 to 1000 nM | 100 to 1000 nM | 1000 to 10000 nM | 100 to 1000 nM | 100 to 1000 nM | 1000 to 10000 nM | < 10 nM |
| C=CC(=O)N1CCCN(C(=O)N(C)[C@H](C(=O)N[C@H]2Cc3nc(cs3)-c3ccc4c(c3)c(c(-c3cccnc3[C@H](C)OC)n4CC)CC(C)(C)COC(=O)[C@@H]3CCCN(N3)C2=O)C(C)C)CC1 (atropisomer, axis not shown) [Example A436] | < 5000 nM | 10 to 100 nM | 10 to 100 nM | 100 to 1000 nM | 100 to 1000 nM | 100 to 1000 nM | 100 to 1000 nM | 10 to 100 nM | 100 to 1000 nM | 10 to 100 nM |
| C=CC(=O)NCCN(C)C(=O)N(C)[C@H](C(=O)N[C@H]1Cc2nc(cs2)-c2ccc3c(c2)c(c(-c2cccnc2[C@H](C)OC)n3CC)CC(C)(C)COC(=O)[C@@H]2CCCN(N2)C1=O)C(C)C (atropisomer, axis not shown) [Example A438] | < 5000 nM | 10 to 100 nM | 10 to 100 nM | 10 to 100 nM | 100 to 1000 nM | 1000 to 10000 nM | 100 to 1000 nM | 100 to 1000 nM | 100 to 1000 nM | 10 to 100 nM |
| CCn1c(-c2cccnc2[C@H](C)OC)c2c3cc(ccc31)-c1nc(cs1)C[C@H](NC(=O)[C@H](C1CCCC1)N(C)C(=O)[C@H]1CCN(C(=O)C#CC(C)(C)N3CCC3)C1)C(=O)N1CCC[C@H](N1)C(=O)OCC(C)(C)C2 (atropisomer, axis not shown) [Example A439] | < 5000 nM | < 10 nM | 10 to 100 nM | 100 to 1000 nM | 1000 to 10000 nM | > 10000 nM | 1000 to 10000 nM | 1000 to 10000 nM | 1000 to 10000 nM | 10 to 100 nM |
| CCn1c(-c2cccnc2[C@H](C)OC)c2c3cc(ccc31)-c1nc(cs1)C[C@H](NC(=O)[C@H](C(C)C)N(C)C(=O)[C@H]1CCN(C(=O)C#CC(C)(C)N3CCC3)C1)C(=O)N1CCC[C@H](N1)C(=O)OCC(C)(C)C2 (atropisomer, axis not shown) [Example A440] | < 5000 nM | < 10 nM | 10 to 100 nM | 100 to 1000 nM | 1000 to 10000 nM | 1000 to 10000 nM | 1000 to 10000 nM | 1000 to 10000 nM | 1000 to 10000 nM | 10 to 100 nM |
| C=CC(=O)N1CC[C@H](C(=O)N(C)[C@H](C(=O)N[C@H]2Cc3cc(C(F)F)cc(n3)-c3ccc4c(c3)c(c(-c3cccnc3[C@H](C)OC)n4CC)CC(C)(C)COC(=O)[C@@H]3CCCN(N3)C2=O)C(C)C)C1 (atropisomer, axis not shown) [Example A441] | < 5000 nM | 10 to 100 nM | 1000 to 10000 nM | 1000 to 10000 nM | > 10000 nM | > 10000 nM | > 10000 nM | > 10000 nM | > 10000 nM | 1000 to 10000 nM |
| C=CC(=O)N1CC[C@](C#N)(C(=O)N(C)[C@H](C(=O)N[C@H]2Cc3cccc(c3)-c3ccc4c(c3)c(c(-c3cccnc3[C@H](C)OC)n4CC)CC(C)(C)COC(=O)[C@@H]3CCCN(N3)C2=O)C(C)C)C1 (atropisomer, axis not shown) [Example A443] | < 5000 nM | < 10 nM | 10 to 100 nM | 100 to 1000 nM | 100 to 1000 nM | 1000 to 10000 nM | 100 to 1000 nM | 1000 to 10000 nM | 1000 to 10000 nM | 10 to 100 nM |
| C=CC(=O)N1CC[C@@](C#N)(C(=O)N(C)[C@H](C(=O)N[C@H]2Cc3cccc(c3)-c3ccc4c(c3)c(c(-c3cccnc3[C@H](C)OC)n4CC)CC(C)(C)COC(=O)[C@@H]3CCCN(N3)C2=O)C(C)C)C1 (atropisomer, axis not shown) [Example A444] | < 5000 nM | < 10 nM | 10 to 100 nM | 100 to 1000 nM | 1000 to 10000 nM | 1000 to 10000 nM | 100 to 1000 nM | 1000 to 10000 nM | 1000 to 10000 nM | 10 to 100 nM |

Source: US11566007B2, “Ras inhibitors” (Revolution Medicines, Inc., priority 2019, dated 2023)
